From patent US7538241B2, “Hsp90 family protein inhibitors” (Kyowa Hakko Kogyo Co., Ltd., priority 2003, dated 2009) come the findings set out here.

For the experiment, the system named is human chronic myelocytic leukemia-derived K562 cells. The experiment is described as follows: Cell growth inhibition test with K562 cells (WST-1). It is filed as cell-based. Conditions: 72 hours, read-out: 50% growth inhibition concentration (GI50). Here is the method:
In a 96-well plate (Nunc), human chronic myelocytic leukemia-derived K562 cells were sown in an amount of 1500 cells/well, and pre-incubated in 10% FCS-containing Rosewell Park Memorial Institute's Medium (RPMI) 1640 (Nissui) (incubation medium) in a 5% carbon dioxide incubator at 37° C. for 5 hours. Next, a DMSO solution of a test compound controlled at 10 mmol/L was stepwise diluted with the incubation medium, and added to each well in a total amount of 100 μL/well, and further incubated in the 5% carbon dioxide incubator at 37° C. for 72 hours. After the incubation, WST-1-labeled mixture (Rosh Diagnostic) diluted 2-fold with the incubation medium was added thereto in an amount of 20 μL/well, and incubated in the 5% carbon dioxide incubator at 37° C. for 2 hours. Using a microplate spectrophotometer (Biorad's Model 550), the absorbance at 450 nm and 655 nm of each well was measured. The cell growth inhibition activity of the test compound was indicated by the 50% growth inhibition concentration (GI50) thereof, like in Test Example 2.

Some results are limits rather than exact numbers.

`CCNC(=O)Nc1cccc(-c2c(O)cc(O)c(CC)c2CCOCC(O)CO)c1` (stereo not shown) [Compound 206, 5-[2-(2,3-Dihydroxypropoxy)ethyl]-6-ethyl-4-[3-(3-ethylureido)phenyl]benzene-1,3-diol]: the GI50 was not above 50 µM.
In the case of `CCc1c(O)cc(O)c(-c2cccc(NC(=O)c3ccccc3)c2)c1CCOCC(O)CO` (stereo not shown) [Compound 205, 4-[3-(N-benzoylamino)phenyl]-5-[2-(2,3-dihydroxypropoxy)ethyl]-6-ethylbenzene-1,3-diol], the GI50 was not above 50 µM.
Under `CCc1c(O)cc(O)c(-c2ccc(F)c(Cl)c2)c1CC1O[C@H](CO)[C@@H](CO)O1` [Compound 293, 5-{[(4R,5R)-4,5-bis(hydroxymethyl)-1,3-dioxolan-2-yl]methyl}-4-(3-chloro-4-fluorophenyl)-6-ethylbenzene-1,3-diol] stands not above 50 µM.
As for `CCc1c(O)cc(O)c(-c2cccc(NS(C)(=O)=O)c2)c1CCOCC(O)CO` (stereo not shown) [Compound 202, 6-Ethyl-5-[2-(2,3-dihydroxypropoxy)ethyl]-4-{3-[N-(methylsulfonyl)amino]phenyl}benzene-1,3-diol], the GI50 is not above 50 µM.
For `CCc1c(O)cc(O)c(-c2ccccc2)c1CCc1ocnc1C(=O)NC(CO)CO` [Compound 225, 5-[2-(2-ethyl-3,5-dihydroxy-6-phenylphenyl)ethyl]-N-[2-hydroxy-1-(hydroxymethyl)ethyl]-1,3-oxazole-4-carboxamide], the GI50 is not above 50 µM.
Regarding `CCc1c(O)cc(O)c(-c2ccc(F)c(C)c2)c1CCOCCO` [Compound 314, 6-Ethyl-4-(4-fluoro-3-methylphenyl)-5-[2-(2-hydroxyethoxy)ethyl]benzene-1,3-diol], the GI50 was not above 50 µM.
On to `CCc1c(O)cc(O)c(-c2cccc(C)c2)c1CC1O[C@H](CO)[C@@H](CO)O1` [Compound 228, 5-{[(4R,5R)-4,5-bis(hydroxymethyl)-1,3-dioxolan-2-yl]methyl}-6-ethyl-4-(3-methylphenyl)benzene-1,3-diol], for which the GI50 was not above 50 µM.
As to `CCc1c(O)cc(O)c(-c2ccccc2)c1CCC(O)CC(O)CO` (stereo not shown) [Compound 170, 6-Ethyl-4-phenyl-5-(3,5,6-trihydroxyhexyl)benzene-1,3-diol], the GI50 is not above 50 µM.
Regarding `CC(=O)c1c(O)cc(O)c(-c2ccccc2)c1CC1O[C@@H](CO)[C@H](CO)O1` [Compound 287, 6-Acetyl-5-{[(4S,5S)-4,5-bis(hydroxymethyl)-1,3-dioxolan-2-yl]methyl}-4-phenylbenzene-1,3-diol], the GI50 was not above 50 µM.
Take `OC[C@H]1OC(Cc2c(Br)c(O)cc(O)c2-c2ccccc2)O[C@@H]1CO` [Compound 232, 5-{[(4R,5R)-4,5-bis(hydroxymethyl)-1,3-dioxolan-2-yl]methyl}-6-bromo-4-phenylbenzene-1,3-diol]: the GI50 was not above 50 µM.
As for `CCc1c(OC(=O)N2CCN(C)CC2)cc(O)c(-c2ccccc2)c1CCOCCOC` [Compound 327, 4-Ethyl-3-[2-(2-methoxyethoxy)ethyl]-5-(4-methylpiperazin-1-ylcarbonyloxy)-2-phenylbenzen-1-ol], the GI50 was not above 50 µM.
Under `CCc1c(O)cc(O)c(-c2cccc(F)c2)c1CC1O[C@@H](CO)[C@H](CO)O1` [Compound 282, 5-{[(4S,5S)-4,5-bis(hydroxymethyl)-1,3-dioxolan-2-yl]methyl}-6-ethyl-4-(3-fluorophenyl)benzene-1,3-diol] stands not above 50 µM; under `CCCNC(=O)c1cccc(-c2c(O)cc(O)c(CC)c2CC2O[C@H](CO)[C@@H](CO)O2)c1` [Compound 306, 5-{[(4R,5R)-4,5-Bis(hydroxymethyl)-1,3-dioxolan-2-yl]methyl}-6-ethyl-4-[3-(propylcarbamoyl)phenyl]benzene-1,3-diol], not above 50 µM.
Consider `CCc1c(O)cc(O)c(-c2cccc(NC(=O)C(C)(CO)CO)c2)c1CCOCC(O)CO` (stereo not shown) [Compound 207, 5-[2-(2,3-Dihydroxypropoxy)ethyl]-6-ethyl-4-{3-[2-hydroxy-1-(hydroxymethyl)-1-methylethylcarbonylamino]phenyl}benzene-1,3-diol], for which the GI50 is not above 50 µM.
With `CCc1c(O)cc(O)c(-c2ccccc2)c1CCc1ocnc1C(N)=O` [Compound 222, 5-[2-(2-Ethyl-3,5-dihydroxy-6-phenylphenyl)ethyl]-1,3-oxazole-4-carboxamide], the GI50 is not above 50 µM.
With `CCc1c(O)cc(O)c(-c2cccc(C(=O)NCCOC)c2)c1CC1O[C@H](CO)[C@@H](CO)O1` [Compound 303, 5-{[(4R,5R)-4,5-Bis(hydroxymethyl)-1,3-dioxolan-2-yl]methyl}-6-ethyl-4-[3-(2-methoxyethyl)carbamoylphenyl]benzene-1,3-diol], the GI50 was not above 50 µM.
Consider `CCc1c(O)cc(O)c(-c2cccc(NC(C)=O)c2)c1CCOCC(O)CO` (stereo not shown) [Compound 204, 4-[3-(N-acetylamino)phenyl]-5-[2-(2,3-dihydroxypropoxy)ethyl]-6-ethylbenzene-1,3-diol], for which the GI50 is not above 50 µM.
Consider `CCc1c(O)cc(O)c(-c2ccc(F)c(F)c2)c1CC1O[C@@H](CO)[C@H](CO)O1` [Compound 299, 5-{[(4S,5S)-4,5-bis(hydroxymethyl)-1,3-dioxolan-2-yl]methyl}-4-(3,4-difluorophenyl)-6-ethylbenzene-1,3-diol], for which the GI50 is not above 50 µM.
Under `CCc1c(O)cc(O)c(-c2ccccc2)c1C=CC(CO)CO` [Compound 214, 6-ethyl-5-[4-hydroxy-3-(hydroxymethyl)but-1-en-1-yl]-4-phenylbenzene-1,3-diol] stands not above 50 µM.
Regarding `CCc1c(O)cc(O)c(-c2cccc(C(N)=O)c2)c1CC1O[C@@H](CO)[C@H](CO)O1` [Compound 288, 5-{[(4S,5S)-4,5-Bis(hydroxymethyl)-1,3-dioxolan-2-yl]methyl}-6-ethyl-4-(3-carbamoylphenyl)benzene-1,3-diol], the GI50 is not above 50 µM.
Turning to `CCc1c(O)cc(O)c(-c2ccccc2)c1Cc1ocnc1CO` [Compound 208, 6-Ethyl-5-{[4-(hydroxymethyl)-1,3-oxazol-5-yl]methyl}-4-phenylbenzene-1,3-diol], the GI50 was not above 50 µM.
Under `CCc1c(O)cc(O)c(-c2ccccc2)c1Cc1nn(CCO)c(=O)o1` [Compound 318, 5-[(2-Ethyl-3,5-dihydroxy-6-phenylphenyl)methyl]-3-(2-hydroxyethyl)-3H-1,3,4-oxadiazol-2-one] stands not above 50 µM; under `CCc1c(O)cc(O)c(-c2cccc(O)c2)c1CC1O[C@H](COC)[C@@H](COC)O1` [Compound 307, 5-{[(4R,5R)-4,5-Bis(methoxymethyl)-1,3-dioxolan-2-yl]methyl}-6-ethyl-4-(3-hydroxyphenyl)benzene-1,3-diol], not above 50 µM; under `CCc1c(O)cc(O)c(-c2cccc(C(=O)NCCO)c2)c1CC1O[C@H](CO)[C@@H](CO)O1` [Compound 304, 5-{[(4R,5R)-4,5-Bis(hydroxymethyl)-1,3-dioxolan-2-yl]methyl}-6-ethyl-4-[3-(2-hydroxyethyl)carbamoylphenyl]benzene-1,3-diol], not above 50 µM.
For `CCc1c(O)cc(O)c(-c2cccc(C(=O)N(C)C)c2)c1CC1O[C@H](CO)[C@@H](CO)O1` [Compound 292, 5-{[(4R,5R)-4,5-bis(hydroxymethyl)-1,3-dioxolan-2-yl]methyl}-4-[3-(dimethylcarbamoyl)phenyl]-6-ethylbenzene-1,3-diol], the GI50 is not above 50 µM.
